From PubChem BioAssay AID179 (DTP/NCI, 2004)
Values joined by “and” are separate entries in the source; they are usually repeats but may differ in a detail not shown here. Identical values can stand only once. Active and inactive are the calls of the source.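 The calls were made as follows: active = compounds giving half or more protection of infected cells from virus-caused growth loss, again on retest; inactive = the rest.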

System: CEM cells HIV-1 protection, formazan growth assay
Assay: NCI AIDS Antiviral Assay
Settings: for IC50: measured here: growth of uninfected CEM cells
How it was run: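 CEM (human) cells, HIV-1 infected vs uninfected, 5-point dosing, formazan growth read-out. Retest threshold 50% protection.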

| Compound | EC50 | IC50 | outcome |
| --- | --- | --- | --- |
| O=S(=O)(O)c1ccc(-c2nnc(-c3ccccn3)nc2-c2ccc(S(=O)(=O)O)o2)o1 | > 200 µM | > 200 µM | – |
| O=C(CCN1CCCC1)CC(c1ccccc1)c1c(O)c2ccccc2oc1=O (configuration not stated) | > 91.2 µM | > 91.2 µM | – |
| COC1/C=C\OC2(C)Oc3c(C)c(O)c4c(O)c(c(/C=N\OCCO)c(O)c4c3C2=O)NC(=O)/C(C)=C\C=C/C(C)C(O)C(C)C(O)C(C)C(OC(C)=O)C1C (configuration not stated) | 16.2 µM | 126 µM | – |
| C=CCn1c(-c2ccc(Cl)cc2)csc1=Nc1ccccc1OC | > 200 µM | > 200 µM | – |
| CC1=C(C(=O)CC(=O)C(=O)Nc2ccccc2C(F)(F)F)Sc2ccccc2N1 | – | – | inactive |
| CCOC(=O)c1cc(-c2ccccc2)c(OC)c(=O)nc1-c1ccccc1 | > 27.5 µM | > 27.5 µM | – |
| C=CCCC1(CC(Sc2ccccc2)P(=O)(c2ccccc2)c2ccccc2)OCCO1 (configuration not stated) | > 200 µM | > 200 µM | – |
| Cc1ccsc1/C=N/Nc1cnccn1 | > 200 µM | 75.9 µM | – |
| CC1(C)C(=O)N(O)C(C)(C)N1N=O | > 200 µM | > 200 µM | – |
| O=C1OC(C2Cc3ccc4ccccc4c3C2=O)c2ccccc21 (configuration not stated) | > 100 µM | 74.1 µM | – |
| O=c1oc2ccccc2c(O)c1C(c1ccc2ccccc2c1)c1c(O)c2ccccc2oc1=O | > 200 µM | 38.9 µM | – |
| CCCc1cc(=O)oc2c3c(cc(OS(=O)(=O)c4ccc(C)cc4)c12)O[C@H](C)[C@H](C)C3=O | > 151 µM | 95.5 µM | – |
| Cc1cc(Cl)ccc1NC(=O)C(=O)Cc1nc2ccc(C(=O)c3ccccc3)cc2[nH]c1=O | > 77.6 µM | > 77.6 µM | – |
| CN1CC(Br)(Br)C(=O)N(C)C1=O | > 200 µM | 3.24 µM | – |
| c1ccc([P+](CCCCCCCC[P+](c2ccccc2)(c2ccccc2)c2ccccc2)(c2ccccc2)c2ccccc2)cc1 | > 100 µM | 1.23 µM | – |
| Nc1nc(N)c(C2=CCNCC2)c(=O)[nH]1 | > 200 µM | > 200 µM | – |
| Cc1cc(O)c(/C=N/C(=S)NCCc2ccccc2)c(=O)o1 | > 200 µM | > 200 µM | – |
| O=Cc1nc2ccccc2s1 | – | – | inactive |
| COc1cc2cc(C(=O)N3CC(CCl)c4c3cc(NC(=O)C(C)Nc3c([N+](=O)[O-])cc(C(=O)NCCN(C)C)cc3[N+](=O)[O-])c3ccccc43)[nH]c2c(OC)c1OC (configuration not stated) | > 0.1 µM | 0.0575 µM | – |
| CC(C)C1=CC23CCC4C(C)(C(=O)O)CCCC4(C)C2CC1C1C(=O)N(c2ccccc2N2C(=O)C4C5CC6C7(C)CCCC(C)(C(=O)O)C7CCC6(C=C5C(C)C)C4C2=O)C(=O)C13 (configuration not stated) | > 141 µM | 8.13 µM | – |
| Cc1cccc(/C=N/NC(=S)Nc2ccccc2)n1 | > 200 µM | 2 µM | – |
| CCOC(=O)c1cc(=O)n(C)c(=O)n1C | – | – | inactive |

| Compound | EC50 | IC50 | outcome |
| --- | --- | --- | --- |
| O=C(N/N=C(/c1ccccc1)C(F)(F)F)c1ccncc1 | > 200 µM | > 200 µM | – |
| O=C(O)C(CO)NC(=O)n1c2ccccc2c2ccccc21 (configuration not stated) | > 832 µM | 537 µM | – |
| COc1ccc2c(c1)c1cc(OC)ccc1n2CCCCOc1ccc(-c2c3ccccc3c(-c3ccc(OCCCCn4c5ccc(OC)cc5c5cc(OC)ccc54)cc3)c3ccccc23)cc1 | > 1.55 µM | > 1.55 µM | – |
| O[Si](c1ccc(C(F)(F)F)cc1)(c1cccc(C(F)(F)F)c1)c1cccc(C(F)(F)F)c1 | > 200 µM | 10.5 µM | – |
| CC(=O)O[C@@H]1CC[C@]2(C)C3CC[C@]4(C)C(C(C)CCc5nc6ccccc6[nH]5)CCC4C3CC[C@@H]2C1 (some centres not stated) | > 50.1 µM | 15.5 µM | – |
| [N-]=[N+]=NCCCCCCCCCCCC(=O)O | > 200 µM | 81.3 µM | – |
| CC(=O)N1N(c2ccc([N+](=O)[O-])cc2)C(=O)C1(C)C | > 200 µM | > 200 µM | – |
| O=C(CCc1n[nH]c(=S)o1)Nc1cc(Cl)ccc1Cl | > 112 µM | > 112 µM | – |
| CCOC(=O)c1[nH]n(-c2ccccc2)c(=O)c1/C=N/C(N)=S | > 200 µM | > 200 µM | – |
| CC(=O)OC(C)CC[P+](c1ccccc1)(c1ccccc1)c1ccccc1 (configuration not stated) | > 200 µM | 75.9 µM | – |
| CCOC(=O)/C(=C\c1cccc([N+](=O)[O-])c1)C(C)=O | – | – | inactive |
| O=c1c2ccccc2n2nnc3ccc(NCCCNCCNCCCNc4ccc5nnn6c7ccccc7c(=O)c4c56)c1c32 | > 0.0501 µM | 0.0347 µM | – |
| S=c1[nH]c2ccccc2s1.[Zn+2] | > 26.3 µM | > 26.3 µM | – |
| OCCN(CCO)c1ncnc2c1sc(=S)n2-c1ccccc1 | > 724 µM | 282 µM | – |
| C/C(=N\NS(=O)(=O)c1ccc(C)cc1)C(CN(C)C)C(c1ccccc1)c1c(O)c2ccccc2oc1=O (configuration not stated) | > 72.4 µM | > 72.4 µM | – |
| O=Cc1cccc(/C=N/Nc2nnc(N/N=C/c3cccc(C=O)c3)c3ccccc23)c1 | > 200 µM | 28.8 µM | – |
| O=C1/C(=C\c2ccc(Cl)cc2Cl)Sc2scc(-c3cccc([N+](=O)[O-])c3)[n+]21 | – | – | inactive |
| C=C(CCCC(C)OC(C)OCC)[Si](C)(C)C (configuration not stated) | > 38.9 µM | > 38.9 µM | – |
| O=c1n(CCCN2CCOCC2)nc2n1-c1ccc3ccccc3c1SC2 | > 200 µM | 33.9 µM | – |
| O=C(Nc1sccc1S(=O)(=O)c1ccccc1)c1cccnc1 | > 200 µM | 4.47 µM | – |
| COC(=N)c1ncn(Cc2ccccc2)c1N | > 200 µM | 158 µM | – |
| CCCn1c(SCCSc2c3ccccc3c(-c3nc(F)nc(F)n3)n2CCC)c2ccccc2c1-c1nc(F)nc(F)n1 | > 4.07 µM | 3.98 µM | – |

| Compound | EC50 | IC50 | outcome |
| --- | --- | --- | --- |
| CC(=O)Oc1ccc(Nn2c3ccccc3c3ccccc32)c(C)c1 | > 200 µM | 11.7 µM | – |
| CC1(C)OC2OC3C(I)CN(C(=O)OCc4ccccc4)C3C2O1 (configuration not stated) | > 200 µM | 110 µM | – |
| NS(=O)(=O)c1nnc(NC(=O)CCC(=O)O)s1 | > 200 µM | > 200 µM | – |
| O=[N+]([O-])c1c(C=Nc2ccccc2)oc(-c2ccc3c(c2)OCO3)c1-c1ccc2c(c1)OCO2 | > 49 µM | > 49 µM | – |
| c1ccc([P+](CCNCCNCC[P+](c2ccccc2)(c2ccccc2)c2ccccc2)(c2ccccc2)c2ccccc2)cc1 | > 355 µM | 234 µM | – |
| CN(C(=O)C12C3C4C5C3C1(C(=O)O)C5C42)C(C)(C)C (configuration not stated) | > 955 µM | > 955 µM | – |
| COC(=O)C1=CC(=O)N2CCN=C2S1 | > 200 µM | > 200 µM | – |
| CCC[CH2][Ge]([CH2]CCC)([CH2]CCC)[O]C(=O)C(O)c1ccccc1 (configuration not stated) | 4.9 µM | 12 µM | – |
| CCOC(=O)/C(O)=C1\C(=O)N(C)C(=O)C1c1cccc(OC)c1 (configuration not stated) | – | – | inactive |
| N#CC(C(=O)/C(=N/N)C(C#N)c1ccc(Cl)cc1)c1ccc(Cl)cc1 (configuration not stated) | > 676 µM | > 676 µM | – |
| Clc1ccc(OCCSCCCCCCCCCCSCCOc2ccc(Cl)cc2)cc1 | > 7.24 µM | > 7.24 µM | – |
| c1ccc2c(c1)OCOc1ccccc1OCO2 | – | – | inactive |
| O=C(O)c1ccc(S(=O)(=O)O)o1 | > 200 µM | > 200 µM | – |
| COC(=O)c1cc(C#N)[nH]c1-c1ccsc1 | > 200 µM | 30.9 µM | – |
| C/C=C1\CC(C(=O)OCC)CCCCCCCCCCC1=O (configuration not stated) | > 200 µM | 8.51 µM | – |
| O=C1OC2C(O)COC2(O)C1(O)Cc1cc(O)c(O)c(Br)c1Br (configuration not stated) | – | – | inactive |
| COc1ccc(C23C(=O)c4ccccc4N2O[C@H]2C(=O)N(c4ccccc4)C(=O)[C@H]23)cc1 (some centres not stated) | > 31.6 µM | > 31.6 µM | – |
| CC(=O)Oc1cc2c(n(C)c1=O)CCC2 | > 200 µM | 155 µM | – |
| CCC1COc2nc(=O)c(C=NCCCN(C)C)c(N)n21 (configuration not stated) | > 302 µM | > 302 µM | – |
| CCCCCCCCCCCCC1N=C(N)NC2(CCCO2)C1C(=O)OC (configuration not stated) | > 200 µM | 5.75 µM | – |
| C#CCCCCC#Cc1ccccc1C(=O)C=[N+]=[N-] | > 110 µM | 91.2 µM | – |
| CCOC(=O)Nc1nn(C)c(=NCc2ccccc2)s1 | > 200 µM | > 200 µM | – |

| Compound | EC50 | IC50 | outcome |
| --- | --- | --- | --- |
| Nc1[nH]c(=S)c2c(N)n[nH]c2c1C(=O)Nc1ccccc1 | > 200 µM | 91.2 µM | – |
| CN(C)CC/[N+]([O-])=C(/c1ccccc1)C12CC3CC(CC(C3)C1)C2 | – | – | inactive |
| CC(=O)C1C(=O)OC2C3C=CC(C3)C2C1=O (configuration not stated) | > 309 µM | > 309 µM | – |
| c1ccc([P+](CCCCCC[P+](c2ccccc2)(c2ccccc2)c2ccccc2)(c2ccccc2)c2ccccc2)cc1 | > 200 µM | 5.37 µM and 7.24 µM | – |
| Nc1ccc([As](=O)(O)O)cc1C(=O)O | > 200 µM | > 200 µM | – |
| CC(=O)NCCc1c(-c2[nH]c3ccccc3c2CCNC(C)=O)[nH]c2ccccc12 | 51.3 µM | 107 µM | – |
| COc1cc(N(CCC#N)CCC#N)ccc1/C(N=Nc1ccc(Cl)cc1)=N/NC(=O)c1cc(Br)ccc1O | > 100 µM | 17.4 µM | – |
| O=S(=O)(O)c1ccc(N=Nc2cc(S(=O)(=O)O)c3ccccc3c2O)c2ccccc12 | > 100 µM | > 100 µM | – |
| COc1cc([N+](=O)[O-])c(S(=O)(=O)O)cc1-n1nc(-c2ccccc2)n[n+]1-c1cc(S(=O)(=O)[O-])c([N+](=O)[O-])cc1OC | > 100 µM | > 100 µM | – |
| CN(C)C=Nc1ccc2c3c(cccc13)-c1ccccc1-2 | > 200 µM | 14.1 µM | – |
| O=[N+]([O-])c1cccc(C2=NN(c3ccccc3)C3c4cc(Br)ccc4OCC23)c1 (configuration not stated) | > 11.5 µM | > 11.5 µM | – |
| COC(=O)c1csnn1 | > 1740 µM | > 1740 µM | – |
| CC1(C)N([O-])[N+](=O)C1(C)O (configuration not stated) | > 200 µM | > 200 µM | – |
| O=C(OCC(OC(=O)c1ccccc1)C1CC(C(O)C2CCCCC2)C(=O)O1)c1ccccc1 (configuration not stated) | > 200 µM | 21.9 µM | – |
| CC1C2CC3(c4ccccc4)CC(/C2=N\O)/C(=N/O)C1[C@@]3(C)O (some centres not stated) | > 200 µM | > 200 µM | – |
| NC(CSS(=O)(=O)O)=NCCCCC1CCCCC1 | > 200 µM | 30.9 µM | – |
| COc1c(C)cc2c(C(C)C)c(O)c(O)c(C=O)c2c1O | > 871 µM | 14.8 µM | – |
| CSc1cnn(CCC#N)c(=O)n1 | > 200 µM | 36.3 µM | – |
| O=c1c2ccc(Cl)cc2oc2c(CSc3ccccc3)cccc12 | > 200 µM | 9.77 µM | – |
| O=c1[nH]c(C2CCCCC2)nc2ccc(Cl)cc12 | – | – | inactive |
